Assay results from paper PMC3106998, “The novel sigma-2 receptor ligand SW43 stabilizes pancreas cancer progression in combination with gemcitabine” (2010).

Molecular target: T1, sigma-2 receptor (Mus musculus, UniProt Q8VD00)
T1 construct: gene Tmem97; Panc02 tumor membrane homogenates
T1 sequence (Q8VD00 1-176): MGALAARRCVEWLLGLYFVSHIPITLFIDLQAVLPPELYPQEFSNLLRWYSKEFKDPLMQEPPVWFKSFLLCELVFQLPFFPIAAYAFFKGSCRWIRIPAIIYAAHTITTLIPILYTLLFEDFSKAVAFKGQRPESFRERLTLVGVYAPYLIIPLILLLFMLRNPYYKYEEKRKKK
Experiment: radioligand competition with […]-ISO-2 in membrane homogenates
Assay type: binding

Row | Compound | IC50 [µM]
1 | COc1ccc(C)cc1NC(=O)OC1CC2CCCC(C1)N2CCCCCCCCCCN (centres unmarked) [SW43] | 0.018 ± 0.0021
2 | COc1ccc(C)cc1NC(=O)OC1CC2CCCC(C1)N2CCCCCCN (centres unmarked) [SV119] | 0.0078 ± 0.0017
